Laboratory results taken from PubChem BioAssay (NCI).
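Results reflect a 48-hour exposure of cells in 96-well plates to compound at five concentrations. At the GI50, growth is halved. TGI: concentration producing complete growth inhibition.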

Experiments:
Experiment in all cases: NCI anticancer screen, dose series, 48 h
A498 renal = system: A498 renal
HOP-92 NSCLC = system: HOP-92 NSCLC
SK-OV-3 ovarian = system: SK-OV-3 ovarian
HOP-62 NSCLC = system: HOP-62 NSCLC
ACHN renal = system: ACHN renal
UACC-62 melanoma = system: UACC-62 melanoma
HT29 colon = system: HT29 colon
MOLT-4 leukemia = system: MOLT-4 leukemia
MDA-MB-231 breast = system: MDA-MB-231 breast
BT-549 breast = system: BT-549 breast

Row | Structure (SMILES) | TGI (A498 renal) | TGI (HOP-92 NSCLC) | TGI (SK-OV-3 ovarian) | TGI (HOP-62 NSCLC) | TGI (ACHN renal) | TGI (UACC-62 melanoma) | TGI (HT29 colon) | TGI (MOLT-4 leukemia) | GI50 (A498 renal) | GI50 (HOP-92 NSCLC) | GI50 (SK-OV-3 ovarian) | GI50 (HOP-62 NSCLC) | GI50 (ACHN renal) | GI50 (UACC-62 melanoma) | GI50 (MOLT-4 leukemia) | GI50 (MDA-MB-231 breast) | TGI (MDA-MB-231 breast) | GI50 (BT-549 breast) | TGI (BT-549 breast) | GI50 (HT29 colon)
1 | O=C(N/N=C(/c1nc2ccc(Cl)cc2[nH]c1=O)C(O)c1ccc(Cl)cc1Cl)c1ccncc1 (centres undefined) | > 100 µM | > 100 µM | > 100 µM | > 100 µM | > 100 µM | > 100 µM | > 100 µM | > 100 µM | – | – | – | – | – | – | – | – | – | – | – | –
2 | Cc1nc(C)c(C(=O)Nc2cccc3c2C(=O)NC3=O)cc1C(=O)Nc1cccc2c1C(=O)NC2=O | > 100 µM | > 100 µM | > 100 µM | > 100 µM | > 100 µM | > 100 µM | > 100 µM | > 100 µM | – | – | – | – | – | – | – | – | – | – | – | –
3 | Nc1ncnc2c1c(C(F)(F)F)cn2[C@@H]1O[C@H](CO)[C@@H](O)[C@H]1O | 1.95 µM | 6.62 µM | > 100 µM | > 100 µM | > 100 µM | 1.78 µM | – | 1.48 µM | 0.0936 µM | 0.222 µM | 2.49 µM | 0.278 µM | 0.183 µM | 0.0601 µM | 0.324 µM | 0.652 µM | > 100 µM | 0.192 µM | 3.44 µM | –
4 | CCOC1OCCCC1Br (centres undefined) | > 100 µM | > 100 µM | > 100 µM | > 100 µM | > 100 µM | > 100 µM | > 100 µM | > 100 µM | – | – | – | – | – | – | – | – | > 100 µM | – | – | –
5 | COC(=O)C1=C(OC)c2cc3c(cc2C(c2cc(OC)c(OC)c(OC)c2)C1C(=O)OC)OCO3 (centres undefined) | > 100 µM | > 100 µM | > 100 µM | > 100 µM | > 100 µM | > 100 µM | > 100 µM | > 100 µM | – | – | – | – | – | – | – | – | – | – | – | –
6 | O=C1C2c3[nH]c4ccccc4c3[C@@H]3CCCCCCCCCCC3C2C(=O)N1c1ccccc1 (some centres undefined) | – | – | 23 µM | – | > 100 µM | 59.2 µM | > 100 µM | – | – | – | – | – | – | – | – | – | – | – | – | –
7 | CCCCCCCCCCCC(=O)OCC1OC(n2cc(F)c(=O)[nH]c2=O)C(NC(=O)OCc2ccccc2)C(O)C1O (centres undefined) | 51.4 µM | 40.7 µM | > 100 µM | > 100 µM | > 100 µM | 38.6 µM | 29.8 µM | 53.4 µM | – | – | – | – | – | – | – | – | – | – | – | –
8 | COc1ccc(/C=C2\Cc3ccccc3C2=O)cc1OC | > 100 µM | – | > 100 µM | > 100 µM | > 100 µM | > 100 µM | > 100 µM | > 100 µM | – | – | – | – | – | – | – | – | – | – | – | –
9 | CCSc1oc(-c2ccccc2)nc1[P+](c1ccccc1)(c1ccccc1)c1ccccc1 | 0.579 µM | 0.551 µM | 0.977 µM | 1.87 µM | 1.13 µM | 1.44 µM | 2.33 µM | – | 0.126 µM | 0.15 µM | 0.275 µM | 0.308 µM | 0.309 µM | 0.305 µM | – | 0.266 µM | 1.08 µM | 0.281 µM | 1.68 µM | 0.238 µM
10 | Oc1ccc2oc3ncc(Cl)c(-c4ccccc4)c3c2c1 | > 100 µM | > 100 µM | > 100 µM | – | > 100 µM | > 100 µM | > 100 µM | > 100 µM | > 100 µM | > 100 µM | > 100 µM | – | > 100 µM | > 100 µM | > 100 µM | > 100 µM | > 100 µM | – | – | > 100 µM
